This is an account of results in patent US11739098B2 (BRISTOL-MYERS SQUIBB COMPANY, priority 2017, dated 2023).

The structures appear in SMILES notation. pIC50: −log10 of the molar value. Some results are limits rather than exact numbers.

Holding throughout (assay type): cell-based
For one experiment, the target named is T1, human TLR8 (Homo sapiens, UniProt Q9NR97).
T1 construct: host or cells: HEK-Blue cells (HEK293-derived reporter line)
T1 sequence (Q9NR97 27-1041): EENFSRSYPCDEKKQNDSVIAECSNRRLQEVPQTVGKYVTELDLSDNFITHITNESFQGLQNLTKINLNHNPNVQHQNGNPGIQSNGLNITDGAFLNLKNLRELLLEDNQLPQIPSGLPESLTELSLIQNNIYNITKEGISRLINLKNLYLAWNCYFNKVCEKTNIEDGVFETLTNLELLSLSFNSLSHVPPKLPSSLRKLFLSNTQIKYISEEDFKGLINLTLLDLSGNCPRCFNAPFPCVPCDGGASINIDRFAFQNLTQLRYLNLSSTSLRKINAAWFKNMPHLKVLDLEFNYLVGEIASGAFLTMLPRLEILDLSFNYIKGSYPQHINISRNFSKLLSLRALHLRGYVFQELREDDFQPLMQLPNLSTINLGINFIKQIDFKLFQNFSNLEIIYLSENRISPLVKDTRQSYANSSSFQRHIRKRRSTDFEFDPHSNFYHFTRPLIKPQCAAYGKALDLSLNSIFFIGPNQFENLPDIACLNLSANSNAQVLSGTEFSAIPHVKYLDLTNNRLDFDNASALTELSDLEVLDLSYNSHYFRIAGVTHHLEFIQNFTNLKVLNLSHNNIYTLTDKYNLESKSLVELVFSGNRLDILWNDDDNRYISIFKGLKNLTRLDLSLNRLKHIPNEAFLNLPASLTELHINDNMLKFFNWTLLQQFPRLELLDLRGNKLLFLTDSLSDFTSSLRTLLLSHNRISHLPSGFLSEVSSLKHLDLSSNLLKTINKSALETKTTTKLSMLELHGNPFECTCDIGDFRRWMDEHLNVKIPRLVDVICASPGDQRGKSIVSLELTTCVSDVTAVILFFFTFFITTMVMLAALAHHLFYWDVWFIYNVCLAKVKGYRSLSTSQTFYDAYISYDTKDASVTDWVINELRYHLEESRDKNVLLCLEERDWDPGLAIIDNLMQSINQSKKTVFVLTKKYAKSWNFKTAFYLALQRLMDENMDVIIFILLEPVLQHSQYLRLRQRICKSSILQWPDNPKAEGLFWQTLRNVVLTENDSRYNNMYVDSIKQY
As to the kind of experiment: TLR8 inhibition reporter assay (HEK-Blue cells, SEAP reporter, R848 stimulation). To be noted: HEK-Blue cells overexpressing human TLR8, SEAP reporter, R848 15.9 μM. Put shortly:
(§1)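 Agonists (final): TLR7 gardiquimod 7.5 μM; TLR8 R848 15.9 μM; TLR9 ODN2006 5 nM. HEK-Blue reporter cells, 30 min RT compound pre-incubation, 0.05 nM–50 μM dose range, 22 h at 37 °C, colorimetric SEAP detection medium. % inhibition relative to agonist+DMSO and known-inhibitor wells.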

For another experiment, the target named is T2, human TLR7 (Homo sapiens, UniProt Q9NYK1).
T2 construct: host or cells: HEK-Blue cells (HEK293-derived reporter line)
T2 sequence (Q9NYK1 27-1049): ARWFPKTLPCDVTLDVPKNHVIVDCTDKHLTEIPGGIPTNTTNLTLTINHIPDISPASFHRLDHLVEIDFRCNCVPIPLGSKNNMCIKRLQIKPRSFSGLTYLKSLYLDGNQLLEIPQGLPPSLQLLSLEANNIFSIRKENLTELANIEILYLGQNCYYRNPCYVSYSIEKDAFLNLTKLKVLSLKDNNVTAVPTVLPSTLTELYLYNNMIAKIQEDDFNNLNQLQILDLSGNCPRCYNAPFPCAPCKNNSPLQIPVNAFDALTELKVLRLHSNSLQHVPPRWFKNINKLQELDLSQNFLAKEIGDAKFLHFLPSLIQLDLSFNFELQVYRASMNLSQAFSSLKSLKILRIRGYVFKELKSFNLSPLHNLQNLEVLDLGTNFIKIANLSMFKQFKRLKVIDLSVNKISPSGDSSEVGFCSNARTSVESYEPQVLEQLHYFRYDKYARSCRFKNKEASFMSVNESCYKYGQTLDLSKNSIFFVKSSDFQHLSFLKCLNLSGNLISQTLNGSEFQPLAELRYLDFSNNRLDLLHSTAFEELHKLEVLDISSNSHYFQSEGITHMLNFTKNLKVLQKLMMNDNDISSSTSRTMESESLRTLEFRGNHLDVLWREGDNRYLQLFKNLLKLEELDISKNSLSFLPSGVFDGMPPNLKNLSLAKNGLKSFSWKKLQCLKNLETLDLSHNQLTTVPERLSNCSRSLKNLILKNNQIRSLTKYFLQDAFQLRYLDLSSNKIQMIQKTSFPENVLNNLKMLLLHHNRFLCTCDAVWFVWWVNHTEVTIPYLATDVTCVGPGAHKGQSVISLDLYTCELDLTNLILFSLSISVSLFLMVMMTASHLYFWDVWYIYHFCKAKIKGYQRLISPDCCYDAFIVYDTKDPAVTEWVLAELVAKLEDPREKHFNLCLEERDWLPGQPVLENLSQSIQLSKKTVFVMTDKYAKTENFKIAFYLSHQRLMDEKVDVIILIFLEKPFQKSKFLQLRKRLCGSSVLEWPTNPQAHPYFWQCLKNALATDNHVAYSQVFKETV
As to the kind of experiment: TLR7 inhibition reporter assay (HEK-Blue cells, SEAP reporter, gardiquimod stimulation). As to conditions: HEK-Blue cells overexpressing human TLR7, SEAP reporter, gardiquimod 7.5 μM. In outline:
as §1

A further experiment concerns the target T3, human TLR9 (Homo sapiens, UniProt Q9NR96).
T3 construct: host or cells: HEK-Blue cells (HEK293-derived reporter line)
T3 sequence (Q9NR96 26-1032): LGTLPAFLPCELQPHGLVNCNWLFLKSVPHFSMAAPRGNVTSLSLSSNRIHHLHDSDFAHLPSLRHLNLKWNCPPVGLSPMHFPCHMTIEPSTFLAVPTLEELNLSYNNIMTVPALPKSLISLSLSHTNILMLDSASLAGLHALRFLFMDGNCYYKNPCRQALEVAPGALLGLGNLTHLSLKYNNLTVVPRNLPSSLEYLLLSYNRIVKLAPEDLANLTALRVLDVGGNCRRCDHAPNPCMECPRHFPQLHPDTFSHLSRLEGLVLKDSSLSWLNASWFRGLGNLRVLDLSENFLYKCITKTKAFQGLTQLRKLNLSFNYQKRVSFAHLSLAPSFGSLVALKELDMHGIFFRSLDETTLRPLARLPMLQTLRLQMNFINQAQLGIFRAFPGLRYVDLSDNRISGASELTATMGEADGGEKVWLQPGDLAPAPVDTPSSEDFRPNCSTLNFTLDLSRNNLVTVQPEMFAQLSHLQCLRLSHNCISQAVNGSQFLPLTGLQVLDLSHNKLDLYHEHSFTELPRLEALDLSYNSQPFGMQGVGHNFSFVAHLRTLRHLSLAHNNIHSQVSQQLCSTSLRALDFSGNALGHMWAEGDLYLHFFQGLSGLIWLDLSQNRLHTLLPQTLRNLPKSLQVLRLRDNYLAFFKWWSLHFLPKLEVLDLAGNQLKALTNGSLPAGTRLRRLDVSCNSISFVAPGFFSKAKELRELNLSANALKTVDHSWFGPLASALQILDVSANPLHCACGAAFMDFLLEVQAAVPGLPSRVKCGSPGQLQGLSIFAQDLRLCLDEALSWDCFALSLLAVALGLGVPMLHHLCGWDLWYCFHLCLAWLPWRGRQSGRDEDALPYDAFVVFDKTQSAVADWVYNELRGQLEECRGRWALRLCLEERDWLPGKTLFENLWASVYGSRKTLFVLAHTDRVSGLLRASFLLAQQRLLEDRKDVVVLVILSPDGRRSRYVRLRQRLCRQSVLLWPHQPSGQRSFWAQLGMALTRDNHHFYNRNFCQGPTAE
As to the kind of experiment: TLR9 inhibition reporter assay (HEK-Blue cells, SEAP reporter, ODN2006 stimulation). To be noted: HEK-Blue cells overexpressing human TLR9, SEAP reporter, ODN2006 5 nM. In outline:
as §1

In the case of `Cc1cc(-c2[nH]c3ccc(C4CCN(CC(=O)N(C)C)CC4)cc3c2C(C)C)cc2ncnn12` [Example 324, 2-(4-(3-isopropyl-2-(5-methyl-[1,2,4]triazolo[1,5-a]pyridin-7-yl)-1H-indol-5-yl)piperidin-1-yl)-N,N-dimethylacetamide], the pIC50 on human TLR8 was > 7.00; at human TLR7, > 7.00; on human TLR9, 4.30 to 6.00.

Consider `CC(C)c1c(-c2cnc3ncnn3c2)[nH]c2ccc(C3CCNCC3)cc12` [Example 170, 6-(3-isopropyl-5-(piperidin-4-yl)-1H-indol-2-yl)-[1,2,4]triazolo[1,5-a]pyrimidine], for which the figures for the negative logarithm of the IC50 (pIC50) against human TLR8, at human TLR7 and against human TLR9 were > 7.00, > 7.00 and 6.00 to 7.00, respectively.

In the case of `CNC(=O)CN1CCC(c2ccc3[nH]c(-c4cc(C(C)(C)O)c5nccn5c4)c(C(C)C)c3c2)CC1` [Example 342, 2-(4-(2-(8-(2-hydroxypropan-2-yl)imidazo[1,2-a]pyridin-6-yl)-3-isopropyl-1H-indol-5-yl)piperidin-1-yl)-N-methylacetamide], the pIC50 at human TLR8 was 6.00 to 7.00; against human TLR7 it was > 7.00; against human TLR9 it was 6.00 to 7.00.

In the case of `CC(C)c1c(-c2cnc3ncnn3c2)[nH]c2ccc(C3CCN(C4COC4)CC3)cc12` [Example 721, 6-(3-isopropyl-5-(1-(oxetan-3-yl)piperidin-4-yl)-1H-indol-2-yl)-[1,2,4]triazolo[1,5-a]pyrimidine], the pIC50 against human TLR8 is 6.00 to 7.00; on human TLR7, > 7.00; against human TLR9 it was 4.30 to 6.00.

On to `Cc1cc(-c2[nH]c3ccc(C4CCNCC4)cc3c2C(C)C)cn2c(C(N)=O)cnc12` [Example 261, 6-(3-isopropyl-5-(piperidin-4-yl)-1H-indol-2-yl)-8-methylimidazo[1,2-a]pyridine-3-carboxamide], for which the pIC50 against human TLR8 is 6.00 to 7.00; against human TLR7, > 7.00; at human TLR9, 4.30 to 6.00.

Take `COc1c(C)c(-c2[nH]c3ccc(C4CCN(C(=O)CN(C)C)CC4)cc3c2C(C)C)nn2ncnc12` [Example 451, 2-(dimethylamino)-1-(4-(3-isopropyl-2-(8-methoxy-7-methyl-[1,2,4]triazolo[1,5-b]pyridazin-6-yl)-1H-indol-5-yl)piperidin-1-yl)ethan-1-one]: the pIC50 on human TLR8 is > 7.00; at human TLR7 it was > 7.00; at human TLR9, 4.30 to 6.00.

With `CC(C)c1c(-c2cn(C)c3ncccc23)[nH]c2ccc(C3CCN(C4COC4)CC3)cc12` [Example 733, 3-(3-isopropyl-5-(1-(oxetan-3-yl)piperidin-4-yl)-1H-indol-2-yl)-1-methyl-1H-pyrrolo[2,3-b]pyridine], the pIC50 against human TLR8 was > 7.00; against human TLR7, > 7.00; against human TLR9, 4.30 to 6.00.

As to `Cc1cc(-c2[nH]c3ccc(C4CCN(CC(=O)N(C)C)CC4)cc3c2C(C)C)cn2nnnc12` [Example 313, 2-(4-(3-isopropyl-2-(8-methyltetrazolo[1,5-a]pyridin-6-yl)-1H-indol-5-yl)piperidin-1-yl)-N,N-dimethylacetamide], the pIC50 at human TLR8 was > 7.00; at human TLR7, > 7.00; on human TLR9, 4.30 to 6.00.

As for `CC(=O)NCC(=O)N1CCC(c2ccc3[nH]c(-c4ccnc5[nH]ncc45)c(C(C)C)c3c2)CC1` [Example 567, N-(2-(4-(3-isopropyl-2-(1H-pyrazolo[3,4-b]pyridin-4-yl)-1H-indol-5-yl)piperidin-1-yl)-2-oxoethyl)acetamide], the results for the pIC50 against human TLR8, on human TLR7 and at human TLR9 were 6.00 to 7.00, > 7.00 and < 4.30, respectively.

With `CC(C)c1c(-c2ccc3c(N)n[nH]c3c2)[nH]c2ccc(C3CCNCC3)cc12` [Example 84, 6-(3-isopropyl-5-(piperidin-4-yl)-1H-indol-2-yl)-1H-indazol-3-amine], the pIC50 at human TLR8, on human TLR7 and on human TLR9 was 6.00 to 7.00 in each case.

For `CCc1c(-c2ccnc3[nH]ccc23)[nH]c2ccc(C3CCNCC3)cc12` [Example 236, 4-(3-ethyl-5-(piperidin-4-yl)-1H-indol-2-yl)-1H-pyrrolo[2,3-b]pyridine], the negative logarithm of the IC50 (pIC50) against human TLR8 was > 7.00; at human TLR7, > 7.00; against human TLR9, 6.00 to 7.00.

As for `Cc1cc(-c2[nH]c3ccc(C4CCN(CC(=O)N(C)C)CC4)cc3c2C(C)C)cn2ccnc12` [Example 398, 2-(4-(3-isopropyl-2-(8-methylimidazo[1,2-a]pyridin-6-yl)-1H-indol-5-yl)piperidin-1-yl)-N,N-dimethylacetamide], the pIC50 against human TLR8 is > 7.00; against human TLR7 it was > 7.00; on human TLR9, 6.00 to 7.00.

With `CC(C)c1c(-c2cc(Cl)c3ncccc3c2)[nH]c2ccc(C3CCNCC3)cc12` [Example 139, 8-chloro-6-(3-isopropyl-5-(piperidin-4-yl)-1H-indol-2-yl)quinoline], the negative logarithm of the IC50 (pIC50) is > 7.00 against human TLR8, > 7.00 at human TLR7 and 4.30 to 6.00 on human TLR9.
